According to ChEMBL document CHEMBL6182939, “Searching for Synthetic Opioid Rescue Agents. 2: Identification of an Ultra-Potent Synthetic Opioid Rescue Agent” (J Med Chem, 2025):

Columns and labels:
Mu-type opioid receptor = Mu-type opioid receptor (Homo sapiens, UniProt P35372); type: functional, cell-based, CHO-K1
[1] = biological target: T1, Delta-type opioid receptor (Homo sapiens, UniProt P41143); test: Antagonist activity against human DOR expressed in CHO-K1 cells assessed as maximal inhibition of forskolin-induced cAMP accumulation pretreated for 15 mins followed by forskolin addition measured after 30 mins by HitHunter cAMP assay normalized to naltrexone; type: functional, cell-based; conditions: filed as antagonist, time 45.0 min
T1 sequence (P41143 whole entry): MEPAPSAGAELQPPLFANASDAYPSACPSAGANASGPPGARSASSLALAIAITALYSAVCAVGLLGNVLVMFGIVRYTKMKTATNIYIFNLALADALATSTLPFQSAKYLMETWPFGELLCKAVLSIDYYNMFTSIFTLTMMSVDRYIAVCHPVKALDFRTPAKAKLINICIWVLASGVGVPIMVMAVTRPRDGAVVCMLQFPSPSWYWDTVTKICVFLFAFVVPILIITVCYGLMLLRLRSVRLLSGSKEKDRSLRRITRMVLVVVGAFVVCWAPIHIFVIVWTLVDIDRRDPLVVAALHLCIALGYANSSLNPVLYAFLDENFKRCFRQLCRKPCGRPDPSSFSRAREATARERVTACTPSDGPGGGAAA

[2] = Metabolic stability in human liver microsomes assessed as half life; type: ADME, Microsome; conditions: for t1/2: microsomes
[3] = Metabolic stability in mouse liver microsomes assessed as half life; type: ADME, Microsome; conditions: for t1/2: microsomes
Cytochrome P450 1A2 = biological target: T2, Cytochrome P450 1A2 (Homo sapiens, UniProt P05177); test: (§1) Inhibition of CYP1A2 in human liver microsomes at 10 uM relative to control; type: ADME, Microsome; conditions: microsomes, 10 µM
T2 sequence (P05177 whole entry): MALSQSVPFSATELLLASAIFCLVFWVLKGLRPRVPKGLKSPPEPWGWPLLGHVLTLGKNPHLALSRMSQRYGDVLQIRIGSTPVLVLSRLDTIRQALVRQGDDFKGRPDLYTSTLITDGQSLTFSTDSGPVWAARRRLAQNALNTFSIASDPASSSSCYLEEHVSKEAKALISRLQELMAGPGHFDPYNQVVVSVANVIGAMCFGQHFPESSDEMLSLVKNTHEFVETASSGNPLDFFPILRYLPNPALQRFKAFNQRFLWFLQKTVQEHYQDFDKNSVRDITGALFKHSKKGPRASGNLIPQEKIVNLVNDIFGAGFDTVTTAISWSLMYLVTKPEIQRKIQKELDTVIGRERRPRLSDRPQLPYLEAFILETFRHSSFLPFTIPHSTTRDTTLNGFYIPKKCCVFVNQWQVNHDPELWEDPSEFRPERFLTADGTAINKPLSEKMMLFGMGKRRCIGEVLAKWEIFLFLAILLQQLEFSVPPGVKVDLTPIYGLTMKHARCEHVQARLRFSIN

Cytochrome P450 2C9 = Cytochrome P450 2C9 (Homo sapiens, UniProt P11712); test: (§2) Inhibition of CYP2C9 in human liver microsomes at 10 uM relative to control; type: ADME, Microsome; conditions: microsomes, 10 µM
Sequence of Cytochrome P450 2C9 (P11712 whole entry): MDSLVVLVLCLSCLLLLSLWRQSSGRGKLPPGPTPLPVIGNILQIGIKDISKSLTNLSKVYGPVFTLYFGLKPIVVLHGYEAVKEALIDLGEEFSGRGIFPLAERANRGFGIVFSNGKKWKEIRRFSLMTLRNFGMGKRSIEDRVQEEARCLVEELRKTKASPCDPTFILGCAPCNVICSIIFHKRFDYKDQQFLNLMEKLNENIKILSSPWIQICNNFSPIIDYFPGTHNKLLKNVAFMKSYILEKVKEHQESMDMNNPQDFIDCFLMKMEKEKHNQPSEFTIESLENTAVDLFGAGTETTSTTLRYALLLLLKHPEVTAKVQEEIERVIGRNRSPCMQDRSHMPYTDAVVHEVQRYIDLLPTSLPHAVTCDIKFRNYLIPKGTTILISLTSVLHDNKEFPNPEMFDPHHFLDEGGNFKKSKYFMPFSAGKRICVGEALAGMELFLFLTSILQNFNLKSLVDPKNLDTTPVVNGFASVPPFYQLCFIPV

Cytochrome P450 2C19 = Cytochrome P450 2C19 (Homo sapiens, UniProt P33261); test: (§3) Inhibition of CYP2C19 in human liver microsomes at 10 uM relative to control; type: ADME, Microsome; conditions: microsomes, 10 µM
Sequence of Cytochrome P450 2C19 (P33261 whole entry): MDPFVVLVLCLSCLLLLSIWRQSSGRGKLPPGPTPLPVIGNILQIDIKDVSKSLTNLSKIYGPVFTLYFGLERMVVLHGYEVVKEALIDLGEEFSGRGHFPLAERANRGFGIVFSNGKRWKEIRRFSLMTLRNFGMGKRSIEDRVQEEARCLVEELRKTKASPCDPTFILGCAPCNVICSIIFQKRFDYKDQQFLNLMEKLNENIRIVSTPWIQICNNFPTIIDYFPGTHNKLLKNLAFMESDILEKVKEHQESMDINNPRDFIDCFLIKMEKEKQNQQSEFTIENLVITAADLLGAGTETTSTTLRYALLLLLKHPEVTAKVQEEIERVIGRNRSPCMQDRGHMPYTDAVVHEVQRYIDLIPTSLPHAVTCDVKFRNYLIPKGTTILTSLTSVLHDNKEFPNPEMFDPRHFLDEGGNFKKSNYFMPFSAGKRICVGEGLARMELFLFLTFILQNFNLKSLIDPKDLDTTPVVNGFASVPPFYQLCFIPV

Cytochrome P450 2D6 = Cytochrome P450 2D6 (Homo sapiens, UniProt P10635); test: (§4) Inhibition of CYP2D6 in human liver microsomes at 10 uM relative to control; type: ADME, Microsome; conditions: microsomes, 10 µM
Sequence of Cytochrome P450 2D6 (P10635 whole entry): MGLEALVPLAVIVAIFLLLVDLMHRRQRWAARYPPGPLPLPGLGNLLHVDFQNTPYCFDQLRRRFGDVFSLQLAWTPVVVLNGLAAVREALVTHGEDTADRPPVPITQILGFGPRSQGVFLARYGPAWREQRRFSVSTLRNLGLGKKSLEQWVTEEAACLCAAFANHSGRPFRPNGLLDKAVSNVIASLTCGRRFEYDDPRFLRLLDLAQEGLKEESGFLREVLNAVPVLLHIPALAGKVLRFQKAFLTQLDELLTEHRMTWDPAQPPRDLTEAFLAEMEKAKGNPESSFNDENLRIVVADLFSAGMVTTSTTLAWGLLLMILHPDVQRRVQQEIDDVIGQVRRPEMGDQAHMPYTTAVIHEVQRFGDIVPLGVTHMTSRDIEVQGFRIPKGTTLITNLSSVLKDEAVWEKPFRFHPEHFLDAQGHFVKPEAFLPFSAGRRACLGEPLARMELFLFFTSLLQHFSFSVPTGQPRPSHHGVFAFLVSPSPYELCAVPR

Cytochrome P450 3A4 = Cytochrome P450 3A4 (Homo sapiens, UniProt P08684); test: (§5) Inhibition of CYP3A4 in human liver microsomes at 10 uM relative to control; type: ADME, Microsome; conditions: microsomes, 10 µM
Sequence of Cytochrome P450 3A4 (P08684 whole entry): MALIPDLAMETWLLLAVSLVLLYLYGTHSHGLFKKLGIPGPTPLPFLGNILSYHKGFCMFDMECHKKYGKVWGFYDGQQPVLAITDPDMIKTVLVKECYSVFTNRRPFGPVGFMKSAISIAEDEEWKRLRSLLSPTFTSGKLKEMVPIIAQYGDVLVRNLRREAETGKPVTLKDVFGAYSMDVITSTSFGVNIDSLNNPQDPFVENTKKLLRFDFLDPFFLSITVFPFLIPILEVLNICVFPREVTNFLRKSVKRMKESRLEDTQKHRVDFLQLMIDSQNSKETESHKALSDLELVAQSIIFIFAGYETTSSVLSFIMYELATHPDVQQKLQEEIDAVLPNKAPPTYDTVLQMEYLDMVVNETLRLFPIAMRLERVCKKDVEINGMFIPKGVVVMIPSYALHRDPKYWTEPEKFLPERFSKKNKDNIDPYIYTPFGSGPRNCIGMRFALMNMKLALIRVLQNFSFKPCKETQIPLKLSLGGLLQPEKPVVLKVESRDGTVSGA

[4] = biological target: T1, Delta-type opioid receptor
[5] = Metabolic stability in mouse liver microsomes assessed as intrinsic clearance; type: ADME, Microsome
[6] = biological target: T3, Sodium-dependent dopamine transporter (Homo sapiens, UniProt Q01959); test: Inhibition of Dopamine transporter (unknown origin)
T3 sequence (Q01959 whole entry): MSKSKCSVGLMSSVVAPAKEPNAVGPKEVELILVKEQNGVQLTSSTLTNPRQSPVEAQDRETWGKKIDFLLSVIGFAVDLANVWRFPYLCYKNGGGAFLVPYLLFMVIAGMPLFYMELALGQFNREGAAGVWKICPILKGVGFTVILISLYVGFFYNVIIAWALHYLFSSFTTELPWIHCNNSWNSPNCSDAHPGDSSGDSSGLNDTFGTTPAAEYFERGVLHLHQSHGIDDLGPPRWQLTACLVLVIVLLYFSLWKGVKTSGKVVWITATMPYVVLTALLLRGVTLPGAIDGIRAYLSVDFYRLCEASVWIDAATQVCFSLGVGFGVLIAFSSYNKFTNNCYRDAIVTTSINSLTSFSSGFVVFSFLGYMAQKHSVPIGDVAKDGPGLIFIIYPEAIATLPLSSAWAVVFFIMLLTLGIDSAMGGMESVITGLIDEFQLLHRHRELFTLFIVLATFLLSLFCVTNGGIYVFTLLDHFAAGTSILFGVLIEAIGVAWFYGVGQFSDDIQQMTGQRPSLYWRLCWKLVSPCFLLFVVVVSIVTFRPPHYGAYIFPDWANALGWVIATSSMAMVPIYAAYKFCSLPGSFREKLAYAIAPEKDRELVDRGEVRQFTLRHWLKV

[7] = biological target: T4, Rho-associated protein kinase 1 (Homo sapiens, UniProt Q13464); test: Inhibition of ROCK1 (unknown origin)
[8] = biological target: T5, Sodium-dependent noradrenaline transporter (Homo sapiens, UniProt P23975); test: Inhibition of Norepinephrine transporter (unknown origin)
T5 sequence (P23975 whole entry): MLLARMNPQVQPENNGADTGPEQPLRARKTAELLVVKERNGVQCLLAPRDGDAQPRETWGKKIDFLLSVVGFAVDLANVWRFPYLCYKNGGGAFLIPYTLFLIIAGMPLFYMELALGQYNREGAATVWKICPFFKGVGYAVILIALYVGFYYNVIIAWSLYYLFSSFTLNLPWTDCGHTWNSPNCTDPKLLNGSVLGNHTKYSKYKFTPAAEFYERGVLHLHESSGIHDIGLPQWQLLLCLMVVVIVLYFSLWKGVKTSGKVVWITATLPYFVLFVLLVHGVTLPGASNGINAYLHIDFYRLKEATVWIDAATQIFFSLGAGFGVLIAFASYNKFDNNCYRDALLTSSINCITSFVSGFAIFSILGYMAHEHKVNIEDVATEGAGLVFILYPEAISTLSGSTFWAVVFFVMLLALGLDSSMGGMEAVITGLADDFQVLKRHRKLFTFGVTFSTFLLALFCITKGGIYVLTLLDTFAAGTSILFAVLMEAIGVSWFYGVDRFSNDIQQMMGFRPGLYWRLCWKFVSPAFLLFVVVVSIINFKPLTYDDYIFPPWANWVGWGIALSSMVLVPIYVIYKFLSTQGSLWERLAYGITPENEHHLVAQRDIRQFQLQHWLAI

[9] = biological target: Voltage-gated inwardly rectifying potassium channel KCNH2 (Homo sapiens, UniProt Q12809); test: Inhibition of hERG channel; type: toxicity
hERG (KCNH2) = hERG (KCNH2) (Homo sapiens, UniProt Q12809); test: Inhibition of hERG channel assessed as maximal response; type: toxicity; conditions: read-out: Imax
[10] = biological target: Glutamate [NMDA] receptor; test: Inhibition of NMDA receptor (unknown origin); type: protein-complex assay, Homo sapiens
[11] = biological target: Kappa-type opioid receptor (Homo sapiens, UniProt P41145); type: functional, cell-based, CHO-K1
Sequence of Kappa-type opioid receptor (P41145 whole entry): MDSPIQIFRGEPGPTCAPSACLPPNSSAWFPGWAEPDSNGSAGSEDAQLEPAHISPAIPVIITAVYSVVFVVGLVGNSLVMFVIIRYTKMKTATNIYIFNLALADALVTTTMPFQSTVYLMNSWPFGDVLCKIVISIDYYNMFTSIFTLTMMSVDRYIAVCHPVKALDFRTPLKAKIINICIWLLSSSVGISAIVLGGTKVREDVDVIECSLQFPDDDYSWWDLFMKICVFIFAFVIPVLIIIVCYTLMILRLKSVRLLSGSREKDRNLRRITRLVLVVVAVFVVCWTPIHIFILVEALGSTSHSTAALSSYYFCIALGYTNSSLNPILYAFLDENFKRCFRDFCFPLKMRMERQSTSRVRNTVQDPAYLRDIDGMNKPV

CYP1A2 = CYP1A2 (Homo sapiens, UniProt P05177); test: as §1; type: ADME, Microsome; conditions: liver microsomes
CYP2C9 = CYP2C9 (Homo sapiens, UniProt P11712); test: as §2; type: ADME, Microsome; conditions: liver microsomes
CYP2C19 = CYP2C19 (Homo sapiens, UniProt P33261); test: as §3; type: ADME, Microsome; conditions: liver microsomes
Sequence of CYP2C19 (P33261 whole entry): as the sequence (P33261 whole entry) above

CYP2D6 = CYP2D6 (Homo sapiens, UniProt P10635); test: as §4; type: ADME, Microsome; conditions: liver microsomes
Sequence of CYP2D6 (P10635 whole entry): as the sequence (P10635 whole entry) above

CYP3A4 = CYP3A4 (Homo sapiens, UniProt P08684); test: as §5; type: ADME, Microsome; conditions: liver microsomes
Sequence of CYP3A4 (P08684 whole entry): as the sequence (P08684 whole entry) above

[12] = Cmax in Sprague-Dawley rat plasma at 1 mg/kg, ip by LC-MS/MS analysis; type: ADME, organism-based
[13] = Half life in Sprague-Dawley rat plasma at 1 mg/kg, ip by LC-MS/MS analysis; type: ADME, organism-based
[14] = Cmax in Sprague-Dawley rat plasma at 2 mg/kg, ip by LC-MS/MS analysis; type: ADME, organism-based
[15] = Half life in Sprague-Dawley rat plasma at 2 mg/kg, ip by LC-MS/MS analysis; type: ADME, organism-based
[16] = Drug uptake in Sprague-Dawley rat brain at 1 mg/kg, ip by LC-MS/MS analysis; type: ADME, organism-based; conditions: in vivo
[17] = biological target: T3, Sodium-dependent dopamine transporter; test: Inhibition of Dopamine transporter (unknown origin) assessed as maximal response
[18] = biological target: T4, Rho-associated protein kinase 1; test: Inhibition of ROCK1 (unknown origin) assessed as maximal response
[19] = biological target: T5, Sodium-dependent noradrenaline transporter; test: Inhibition of Norepinephrine transporter (unknown origin) assessed as maximal response
[20] = biological target: Glutamate [NMDA] receptor (Homo sapiens) (UniProt Q05586+Q12879+Q13224+O15399+O60391+Q14957+Q8TCU5); test: Inhibition of NMDA receptor (unknown origin) assessed as maximal response; type: protein-complex assay
[21] = biological target: Alpha-1A adrenergic receptor (Homo sapiens) (UniProt P35348); test: Antagonist activity at alpha1A adrenoreceptor (unknown origin) assessed as maximal response; conditions: filed as antagonist
[22] = biological target: D(2) dopamine receptor (Homo sapiens) (UniProt P14416); test: Antagonist activity at D2S receptor (unknown origin) assessed as maximal response; conditions: filed as antagonist

Sequence of Mu-type opioid receptor (P35372 whole entry): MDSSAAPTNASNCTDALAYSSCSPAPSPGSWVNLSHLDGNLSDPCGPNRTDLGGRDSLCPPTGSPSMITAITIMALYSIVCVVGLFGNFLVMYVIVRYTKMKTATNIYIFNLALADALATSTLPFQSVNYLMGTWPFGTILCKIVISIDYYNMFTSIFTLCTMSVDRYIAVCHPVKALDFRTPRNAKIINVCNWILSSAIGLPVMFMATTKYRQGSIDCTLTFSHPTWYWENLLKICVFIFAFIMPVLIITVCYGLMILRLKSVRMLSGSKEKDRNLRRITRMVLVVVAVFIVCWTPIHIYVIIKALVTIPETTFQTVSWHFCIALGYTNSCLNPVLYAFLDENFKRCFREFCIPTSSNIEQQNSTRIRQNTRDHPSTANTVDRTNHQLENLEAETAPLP

Structure (SMILES)	IC50 (Mu-type opioid receptor)	Imax [1]	t1/2 [2]	t1/2 [3]	inhibition (INH) (Cytochrome P450 1A2)	inhibition (INH) (Cytochrome P450 2C9)	inhibition (INH) (Cytochrome P450 2C19)	inhibition (INH) (Cytochrome P450 2D6)	inhibition (INH) (Cytochrome P450 3A4)	other results
COc1cc(CNCCC(C)C)ccc1Oc1ccc(C(N)=O)cn1	2 nM	187%	> 145 min	> 145 min	0%	9.7%	21.7%	35.2%	3.8%	IC50 [4]: 5.01 nM
NC(=O)c1ccc(Oc2ccc(CNCCc3ccccc3)cc2OCc2ccccc2)nc1	3.16 nM	152%								IC50 [4]: 3.98 nM
NC(=O)c1ccc(Oc2ccc(CNCCc3ccccc3)cc2)nc1 [listing 1 of 2 here]			> 145 min	62.9 min	0.6%		11.6%	72.7%	6.8%	CLH [5]: 22.05 µL/min/mg; IC50 [6]: 3020 nM; IC50 [7]: 3740 nM; IC50 [8]: 1500 nM; IC50 [9]: 5550 nM; Emax (hERG (KCNH2)): 63.7%; IC50 [10]: 4980 nM
NC(=O)c1ccc(Oc2ccc(CNCCc3ccccc3)cc2)cc1			> 145 min	7.6 min	0%	9.5%	27.7%	66.4%	0%	IC50 [11]: 10 nM
CC(C)(NC(=O)C1=C(O)[C@@H]2Oc3c(O)ccc4c3[C@@]23CCN(CC2CC2)[C@H](C4)[C@]3(O)C1)c1nc(-c2ccccc2)no1 [NALDEMEDINE]	3.16 nM									
COc1cc(CNCCC2CCCCC2)ccc1Oc1ccc(C(N)=O)cn1	3.16 nM									
C[C@H]1CN(CC[C@H](O)C2CCCCC2)CC[C@@]1(C)c1cccc(O)c1		155%								half-life ([2]; liver microsomes): 6.4 min; half-life ([3]; liver microsomes): 1.9 min; inhibition at 10 µM (CYP1A2): 14.5%; inhibition at 10 µM (CYP2C9): 11.9%; inhibition at 10 µM (CYP2C19): 35.1%; inhibition at 10 µM (CYP2D6): 86.4%; inhibition at 10 µM (CYP3A4): 0%; IC50 [4]: 3.98 nM
NC(=O)c1ccc(Oc2ccc(CNCCc3ccccc3)cc2Cl)nc1	1.26 nM	158%	110.2 min	13.6 min	12.1%	4.8%	9.1%	45.4%	0%	
COc1cc(CNC2Cc3ccccc3C2)ccc1Oc1ccc(C(N)=O)cn1	0.398 nM	168%								IC50 [11]: 10 nM; IC50 [4]: 0.631 nM
C=CC[N+]1(C)CC[C@]23c4c5ccc(O)c4O[C@H]2C(=O)CC[C@@]3(O)[C@H]1C5 (stereo partly drawn) [NALOXONE METHIODIDE]	631 nM									
COc1cc(CNCCc2ccccc2)ccc1Oc1ccc(C(N)=O)cn1		157%	> 145 min	41.9 min	1%	13.1%	1.6%	61.2%	7.8%	
C=C1CC[C@@]2(O)[C@H]3Cc4ccc(O)c5c4[C@@]2(CCN3CC2CC2)[C@H]1O5			> 145 min	87.1 min	0%	0%	0%	68.2%	0.2%	
Cl.NC(=O)c1ccc(Oc2ccc(CNCCc3ccccc3)cc2)nc1										Cmax [12]: 92.8 ng/mL; half-life [13]: 91.2 min; Cmax [14]: 182 ng/mL; half-life [15]: 20.9 min; Drug uptake [16]: Not_active
C=CCN1CC[C@]23c4c5ccc(O)c4O[C@H]2C(=O)CC[C@@]3(O)[C@H]1C5 [NALOXONE]										half-life [15]: 20.9 min
NC(=O)c1ccc(Oc2ccc(CNCCc3ccccc3)cc2)nc1 [listing 2 of 2 here]		230%								Imax [17]: 71.5%; Imax [18]: 76.1%; Imax [19]: 83.9%; Imax [20]: 64.3%; Imax [21]: 99.9%; Emax [22]: 99.4%
C=CCN1CC[C@]23c4c5ccc(O)c4O[C@H]2[C@@H](OCCOCCOCCOCCOCCOCCOCCOC)CC[C@@]3(O)[C@H]1C5		103%								
